Measured values from patent publication US4312867A, “Antibacterial compounds, processes for their preparation and compositions containing them” (Beecham Group Limited, priority 1979, dated 1982).
Converted amounts (≈) assume the structure as drawn.

Tests used:
[1] = system: E. coli NCTC 10418; assay: MIC human bacteria (Table 1), serial dilution in nutrient agar; assay type: cell-based; details: Escherichia coli, NCTC10418; E. coli NCTC 10418; nutrient agar with 5% chocolated horse blood; read-out: MIC
[2] = system: E. coli ESS; assay: as above; assay type: cell-based; details: Escherichia coli; E. coli ESS; nutrient agar with 5% chocolated horse blood; read-out: MIC
[3] = system: P. mirabilis 889; assay: as above; assay type: cell-based; details: Proteus mirabilis; P. mirabilis 889; nutrient agar with 5% chocolated horse blood; read-out: MIC
[4] = system: K. aerogenes A; assay: as above; assay type: cell-based; details: Klebsiella aerogenes, nutrient agar with 5% chocolated horse blood
[5] = system: Ps. aeruginosa 10662; assay: as above; assay type: cell-based; details: Pseudomonas aeruginosa, nutrient agar with 5% chocolated horse blood
[6] = system: Pasteurella multocida 1633; assay: as above; assay type: cell-based; details: Pasteurella multocida 1633; nutrient agar with 5% chocolated horse blood; read-out: MIC
[7] = system: Haemophilus influenzae Q1; assay: as above; assay type: cell-based; details: Haemophilus influenzae Q1; nutrient agar with 5% chocolated horse blood; read-out: MIC
[8] = system: Haemophilus influenzae Wy21; assay: as above; assay type: cell-based; details: Haemophilus influenzae Wy21; nutrient agar with 5% chocolated horse blood; read-out: MIC
[9] = system: Neisseria catarrhalis 1502; assay: as above; assay type: cell-based; details: nutrient agar with 5% chocolated horse blood
[10] = system: Bacillus subtilis 6633; assay: as above; assay type: cell-based; details: nutrient agar with 5% chocolated horse blood
[11] = system: Corynebacterium xerosis 9755; assay: as above; assay type: cell-based; details: nutrient agar with 5% chocolated horse blood
[12] = system: Sarcina lutea 8340; assay: as above; assay type: cell-based; details: nutrient agar with 5% chocolated horse blood
[13] = system: Staph aureus Oxford; assay: as above; assay type: cell-based; details: Staphylococcus aureus, nutrient agar with 5% chocolated horse blood
[14] = system: Staph aureus Russell; assay: as above; assay type: cell-based; details: Staphylococcus aureus, nutrient agar with 5% chocolated horse blood
[15] = system: Staph aureus W2827; assay: as above; assay type: cell-based; details: Staphylococcus aureus, nutrient agar with 5% chocolated horse blood
[16] = system: Strep faecalis I; assay: as above; assay type: cell-based; details: nutrient agar with 5% chocolated horse blood
[17] = system: Strep pyogenes A 64/848; assay: as above; assay type: cell-based; details: nutrient agar with 5% chocolated horse blood
[18] = system: Strep pyogenes B 2788; assay: as above; assay type: cell-based; details: nutrient agar with 5% chocolated horse blood
[19] = system: Strep pyogenes C 2761; assay: as above; assay type: cell-based; details: nutrient agar with 5% chocolated horse blood
[20] = system: Strep pneumoniae CN33; assay: as above; assay type: cell-based; details: nutrient agar with 5% chocolated horse blood
[21] = system: E. coli NCTC 10418; assay: MIC veterinary bacteria (Table 2), serial dilution in agar; assay type: cell-based; details: Escherichia coli, NCTC10418; E. coli NCTC 10418; diagnostic sensitivity test agar; read-out: MIC
[22] = system: E. coli E1; assay: as above; assay type: cell-based; details: Escherichia coli, diagnostic sensitivity test agar
[23] = system: S. dublin S7; assay: as above; assay type: cell-based; details: Salmonella enterica, diagnostic sensitivity test agar
[24] = system: S. typhimurium S18; assay: as above; assay type: cell-based; details: Salmonella enterica, diagnostic sensitivity test agar
[25] = system: Bord bronchiseptica B08; assay: as above; assay type: cell-based; details: diagnostic sensitivity test agar
[26] = system: Bord bronchiseptica B09; assay: as above; assay type: cell-based; details: diagnostic sensitivity test agar
[27] = system: Past multocida PA1; assay: as above; assay type: cell-based; details: diagnostic sensitivity test agar
[28] = system: Past multocida PA2; assay: as above; assay type: cell-based; details: diagnostic sensitivity test agar
[29] = system: Erysipelothrix rhusiopathiae NCTC 8163; assay: as above; assay type: cell-based; details: Erysipelothrix rhusiopathiae, NCTC8163
[30] = system: Corynebacterium pyogenes CY1; assay: as above; assay type: cell-based; details: Trueperella pyogenes, diagnostic sensitivity test agar
[31] = system: Staph aureus B4 (pen. resis); assay: as above; assay type: cell-based; details: Staphylococcus aureus; Staph aureus B4 (pen. resis); diagnostic sensitivity test agar; read-out: MIC
[32] = system: Staph aureus 152 (pen. sens); assay: as above; assay type: cell-based; details: Staphylococcus aureus, diagnostic sensitivity test agar
[33] = system: Staph aureus Oxford; assay: as above; assay type: cell-based; details: Staphylococcus aureus; Staph aureus Oxford; diagnostic sensitivity test agar; read-out: MIC
[34] = system: Strep suis (group D) SPS11; assay: as above; assay type: cell-based; details: diagnostic sensitivity test agar
[35] = system: Strep uberis SPU1; assay: as above; assay type: cell-based; details: diagnostic sensitivity test agar
[36] = system: Strep dysgalaciae SPD1; assay: as above; assay type: cell-based; details: diagnostic sensitivity test agar
[37] = system: Strep agalactiae SPA1; assay: as above; assay type: cell-based; details: diagnostic sensitivity test agar
[38] = system: M. suipneumoniae MS16; assay: anti-mycoplasmal MIC, Friis broth solidified with agarose (Table 4); assay type: cell-based; details: Mesomycoplasma hyopneumoniae, MS16, 144 h
[39] = system: M. suipneumoniae PW/C/210; assay: as above; assay type: cell-based; details: Mesomycoplasma hyopneumoniae, 144 h, 6 days at 37° C.
[40] = system: M. suipneumoniae LABER; assay: as above; assay type: cell-based; details: Mesomycoplasma hyopneumoniae, 144 h, 6 days at 37° C.
[41] = system: M. suipneumoniae UCD1; assay: as above; assay type: cell-based; details: Mesomycoplasma hyopneumoniae, 144 h, 6 days at 37° C.
[42] = Serum binding by ultrafiltration of porcine serum; assay type: in vitro ADME; details: pig, 8 mcg/ml, microbiological assay, read-out: % bound to pig serum (converted)
Description: Serum binding was assessed by ultrafiltration of porcine serum containing compounds at 8 mcg/ml, and through an Amicon CF50A ultrafiltration cone. Separation of ultrafiltrate was achieved by centrifugation. Unbound concentrations of compound were measured in the ultrafiltrate by microbiological assay (B. subtilis ATCC 6633) against standards prepared in saline.

SMILES: C/C(=C\C(=O)OC(C)CCCCCS(N)(=O)=O)CC1OCC(CC2OC2C(C)C(C)O)C(O)C1O (stereo not drawn) [Example 5, 7-Sulphamoylhept-2-yl monate A]
- MIC [1]: > 100 µg/mL
- MIC [2]: 2.5 µg/mL (≈ 4.79 µM)
- MIC [3]: > 100 µg/mL
- MIC [4]: > 100 µg/mL
- MIC [5]: > 100 µg/mL
- MIC [6]: 2.5 µg/mL (≈ 4.79 µM)
- MIC [7]: 0.2 µg/mL (≈ 0.383 µM)
- MIC [8]: 0.2 µg/mL (≈ 0.383 µM)
- MIC [9]: 1 µg/mL (≈ 1.92 µM)
- MIC [10]: 2.5 µg/mL (≈ 4.79 µM)
- MIC [11]: No Growth
- MIC [12]: No Growth
- MIC [13]: 10 µg/mL (≈ 19.2 µM)
- MIC [14]: 10 µg/mL (≈ 19.2 µM)
- MIC [15]: 25 µg/mL (≈ 47.9 µM)
- MIC [16]: > 100 µg/mL
- MIC [17]: 2.5 µg/mL (≈ 4.79 µM)
- MIC [18]: 2.5 µg/mL (≈ 4.79 µM)
- MIC [19]: 2.5 µg/mL (≈ 4.79 µM)
- MIC [20]: 1 µg/mL (≈ 1.92 µM)
- MIC [21]: > 80 µg/mL
- MIC [22]: > 80 µg/mL
- MIC [23]: > 80 µg/mL
- MIC [24]: > 80 µg/mL
- MIC [25]: 40 µg/mL (≈ 76.7 µM)
- MIC [26]: 10 µg/mL (≈ 19.2 µM)
- MIC [27]: 0.625 µg/mL (≈ 1.2 µM)
- MIC [28]: 0.312 µg/mL (≈ 0.598 µM)
- MIC [29]: 40 µg/mL (≈ 76.7 µM)
- MIC [30]: 80 µg/mL (≈ 153 µM)
- MIC [31]: 5 µg/mL (≈ 9.58 µM)
- MIC [32]: 1.25 µg/mL (≈ 2.4 µM)
- MIC [33]: 1.25 µg/mL (≈ 2.4 µM)
- MIC [34]: 5 µg/mL (≈ 9.58 µM)
- MIC [35]: 0.625 µg/mL (≈ 1.2 µM)
- MIC [36]: 0.625 µg/mL (≈ 1.2 µM)
- MIC [37]: 1.25 µg/mL (≈ 2.4 µM)
- MIC [38]: 250 µg/mL (≈ 479 µM)
- MIC [39]: 250 µg/mL (≈ 479 µM)
- MIC [40]: 250 µg/mL (≈ 479 µM)
- MIC [41]: 1000 µg/mL (≈ 1920 µM)
- fraction unbound [42]: 0.354
